# Source: US20100041089A1, “IMPROVED METHOD FOR DETECTING CHEMICAL […]” (priority 2006, published 2010)
# Test system: yeast genes (expressed mRNA)
# Experiment: DNA chip measurement of expressed mRNA of yeast genes after culture with a toxic chemical substance
# Assay type: cell-based, Saccharomyces cerevisiae S288C
# In short: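 Yeast S288C, YPD 25° C; toxicant at log phase, 2 h, sublethal growth-inhibiting conc.; no-chemical control. Hot SDS/acetate RNA extraction, oligo-dT mRNA, Cy3/Cy5-dUTP RT. Whole-genome chip, 65° C >12 h. Readout: treated/control intensity ratio, ≥2 significant.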
smiles,measurement,setting,value
"CN(C)C(=S)SSC(=S)N(C)C [(10), Tetramethylthiuram disulfide]",The level of expressed mRNA in the presence of chemical substance/The level of expressed mRNA in the absence of chemical substance,"yeast gene YFL010C, cultured two hours with substance",1.4
same,The level of expressed mRNA in the presence of chemical substance/The level of expressed mRNA in the absence of chemical substance,"yeast gene YFL024C, cultured two hours with substance",0.5
same,The level of expressed mRNA in the presence of chemical substance/The level of expressed mRNA in the absence of chemical substance,"yeast gene YFL032W, cultured two hours with substance",0.6
same,The level of expressed mRNA in the presence of chemical substance/The level of expressed mRNA in the absence of chemical substance,yeast gene YFL056C,31.3
same,The level of expressed mRNA in the presence of chemical substance/The level of expressed mRNA in the absence of chemical substance,"yeast gene YFL056C, cultured for two hours with substance",31.3
same,The level of expressed mRNA in the presence of chemical substance/The level of expressed mRNA in the absence of chemical substance,yeast gene YFL057C,46.1
same,The level of expressed mRNA in the presence of chemical substance/The level of expressed mRNA in the absence of chemical substance,"yeast gene YFL057C, cultured for two hours with substance",46.1
same,The level of expressed mRNA in the presence of chemical substance/The level of expressed mRNA in the absence of chemical substance,"yeast gene YGL037C, cultured two hours with substance",1.6
same,The level of expressed mRNA in the presence of chemical substance/The level of expressed mRNA in the absence of chemical substance,"yeast gene YGL046W, cultured two hours with substance",4.5
same,The level of expressed mRNA in the presence of chemical substance/The level of expressed mRNA in the absence of chemical substance,"yeast gene YGL047W, cultured two hours with substance",5.7
same,The level of expressed mRNA in the presence of chemical substance/The level of expressed mRNA in the absence of chemical substance,"yeast gene YGL053W, cultured two hours with substance",2.4
same,The level of expressed mRNA in the presence of chemical substance/The level of expressed mRNA in the absence of chemical substance,"yeast gene YGL121C, cultured two hours with substance",15.0
same,The level of expressed mRNA in the presence of chemical substance/The level of expressed mRNA in the absence of chemical substance,"yeast gene YGL136C, cultured two hours with substance",1.0
same,The level of expressed mRNA in the presence of chemical substance/The level of expressed mRNA in the absence of chemical substance,yeast gene YGL184C,66.8
same,The level of expressed mRNA in the presence of chemical substance/The level of expressed mRNA in the absence of chemical substance,"yeast gene YGL193C, cultured two hours with substance",1.0
same,The level of expressed mRNA in the presence of chemical substance/The level of expressed mRNA in the absence of chemical substance,"yeast gene YGL199C, cultured two hours with substance",0.1
same,The level of expressed mRNA in the presence of chemical substance/The level of expressed mRNA in the absence of chemical substance,"yeast gene YGR101W, cultured two hours with substance",1.4
same,The level of expressed mRNA in the presence of chemical substance/The level of expressed mRNA in the absence of chemical substance,"yeast gene YGR110W, cultured two hours with substance",4.8
same,The level of expressed mRNA in the presence of chemical substance/The level of expressed mRNA in the absence of chemical substance,"yeast gene YGR130C, cultured two hours with substance",1.5
same,The level of expressed mRNA in the presence of chemical substance/The level of expressed mRNA in the absence of chemical substance,"yeast gene YGR142W, cultured two hours with substance",12.2
same,The level of expressed mRNA in the presence of chemical substance/The level of expressed mRNA in the absence of chemical substance,"yeast gene YGR154C, cultured two hours with substance",9.1
same,The level of expressed mRNA in the presence of chemical substance/The level of expressed mRNA in the absence of chemical substance,yeast gene YGR213C,6.9
same,The level of expressed mRNA in the presence of chemical substance/The level of expressed mRNA in the absence of chemical substance,"yeast gene YGR221C, cultured two hours with substance",0.7
same,The level of expressed mRNA in the presence of chemical substance/The level of expressed mRNA in the absence of chemical substance,yeast gene YHL040C (detoxification protein gene),11.3
same,The level of expressed mRNA in the presence of chemical substance/The level of expressed mRNA in the absence of chemical substance,yeast gene YHL040C (transport facilitation protein gene),11.3
same,The level of expressed mRNA in the presence of chemical substance/The level of expressed mRNA in the absence of chemical substance,yeast gene YHL047C (detoxification protein gene),11.9
same,The level of expressed mRNA in the presence of chemical substance/The level of expressed mRNA in the absence of chemical substance,yeast gene YHL047C (transport facilitation protein gene),11.9
same,The level of expressed mRNA in the presence of chemical substance/The level of expressed mRNA in the absence of chemical substance,"yeast gene YHR029C, cultured two hours with substance",8.6
same,The level of expressed mRNA in the presence of chemical substance/The level of expressed mRNA in the absence of chemical substance,yeast gene YHR071W,7.2
same,The level of expressed mRNA in the presence of chemical substance/The level of expressed mRNA in the absence of chemical substance,"yeast gene YHR116W, cultured two hours with substance",2.7
same,The level of expressed mRNA in the presence of chemical substance/The level of expressed mRNA in the absence of chemical substance,"yeast gene YHR138C, cultured two hours with substance",4.6
same,The level of expressed mRNA in the presence of chemical substance/The level of expressed mRNA in the absence of chemical substance,yeast gene YHR139C,46.6
same,The level of expressed mRNA in the presence of chemical substance/The level of expressed mRNA in the absence of chemical substance,"yeast gene YHR199C, cultured two hours with substance",6.0
same,The level of expressed mRNA in the presence of chemical substance/The level of expressed mRNA in the absence of chemical substance,"yeast gene YIL023C, cultured two hours with substance",1.6
same,The level of expressed mRNA in the presence of chemical substance/The level of expressed mRNA in the absence of chemical substance,"yeast gene YIL024C, cultured two hours with substance",1.8
same,The level of expressed mRNA in the presence of chemical substance/The level of expressed mRNA in the absence of chemical substance,"yeast gene YIL041W, cultured two hours with substance",1.4
same,The level of expressed mRNA in the presence of chemical substance/The level of expressed mRNA in the absence of chemical substance,"yeast gene YIL087C, cultured two hours with substance",1.8
same,The level of expressed mRNA in the presence of chemical substance/The level of expressed mRNA in the absence of chemical substance,"yeast gene YIL102C, cultured two hours with the chemical substance",0.3
same,The level of expressed mRNA in the presence of chemical substance/The level of expressed mRNA in the absence of chemical substance,"yeast gene YIL117C, cultured two hours with substance",3.5
same,The level of expressed mRNA in the presence of chemical substance/The level of expressed mRNA in the absence of chemical substance,yeast gene YIL167W,12.7
same,The level of expressed mRNA in the presence of chemical substance/The level of expressed mRNA in the absence of chemical substance,yeast gene YIL168W,19.3
same,The level of expressed mRNA in the presence of chemical substance/The level of expressed mRNA in the absence of chemical substance,yeast gene YIR038C (detoxification protein gene),4.5
same,The level of expressed mRNA in the presence of chemical substance/The level of expressed mRNA in the absence of chemical substance,"yeast gene YJL020C, cultured two hours with substance",1.0
same,The level of expressed mRNA in the presence of chemical substance/The level of expressed mRNA in the absence of chemical substance,"yeast gene YJL057C, cultured two hours with substance",6.1
same,The level of expressed mRNA in the presence of chemical substance/The level of expressed mRNA in the absence of chemical substance,"yeast gene YJL066C, cultured two hours with substance",2.1
same,The level of expressed mRNA in the presence of chemical substance/The level of expressed mRNA in the absence of chemical substance,"yeast gene YJL082W, cultured two hours with substance",2.9
same,The level of expressed mRNA in the presence of chemical substance/The level of expressed mRNA in the absence of chemical substance,"yeast gene YJL100W, cultured two hours with the chemical substance",2.7
same,The level of expressed mRNA in the presence of chemical substance/The level of expressed mRNA in the absence of chemical substance,"yeast gene YJL108C, cultured two hours with substance",0.7
same,The level of expressed mRNA in the presence of chemical substance/The level of expressed mRNA in the absence of chemical substance,"yeast gene YJL149W, cultured two hours with substance",3.8
same,The level of expressed mRNA in the presence of chemical substance/The level of expressed mRNA in the absence of chemical substance,"yeast gene YJL151C, cultured two hours with substance",1.6
